The values below come from patent US20100254965A1, “Adenosine Signaling in Diagnosis, Treatment, and Prevention of Priapism and Erectile Dysfunction” (BOARD OF REGENTS ,THE UNIVERSITY OF TEXAS SYSTEM, priority 2006, published 2010).

The subject of this assay is corpus cavernosal smooth muscle cells (CCSM). The experiment in a line: cGMP levels in primary CCSM / PVSM. Format: cell-based, mouse. The conditions noted are these: CCSM/PVSM of both wild type and A2BR deficient mice, 10 min. The text has this:
Results for wild-type and A2B^−/− mouse were statistically significant, p<0.01.
FIG. 18. Adenosine stimulated both cAMP and cGMP induction in corpus cavernosal smooth muscle cells (CCSM) via A2BR activation. (a) Adenosine receptor expression profile in purified primary CCSM. CCSM were purified from adult mouse penes. […] (b) CCSM were isolated and cultured from mouse penes. The cells were switched to serum-free medium and treated with different concentrations of adenosine with or without A2BR antagonist (MRS1706-10 μM), A2AR antagonist (ZM241385-50 nM) or A2AR agonist (CGS-21680-10 μM) alone for 10 min. Then cellular extracts were collected and cAMP levels were measured using an ELISA kit. The data represent mean±SE. *p<0.05, adenosine treated versus the untreated; **p<0.05, adenosine plus MRS1706 or ZM241385 versus the adenosine treated. (c) CCSM were isolated from penes of the wild type and A2BR-deficient mice and cultured with or without adenosine (100 μM), NECA (10 μM), a potent adenosine receptor agonist, forskolin (10 μM), an adenylyl cyclase agonist. […] N=4. *p<0.05, adenosine, forskolin and NECA treated versus the untreated control. (d) Corpus cavernosal strips (CCS) were isolated from wild type and A2BR-deficient mice and treated with different concentrations of adenosine in the presence or absence of L-NAME (100 μM) or MRS1706 (10 μM). 10 min after treatment, cellular extracts were collected and cGMP levels were measured by using a commercial enzyme immunoassay kit (Amersham Pharmacia). Data are expressed as mean±SE. *p<0.05, adenosine treated versus the control; **p<0.05, adenosine treated with MRS1706 versus the adenosine treated; ***p<0.05, CCS of A2BR-deficient mice treated with adenosine versus the CCS of wild type mice treated with adenosine. N=6-7. (e) CCSM were isolated from wild type and A2BR deficient mice and cultured with or without adenosine (100 μM), NECA (10 μM), a potent adenosine receptor agonist, forskolin (10 μM), an adenylyl cyclase agonist, or diethylamine-NONOate (DEA/NO) (10 μM). […] N=4. *p<0.05, DEA/NO treated versus to the untreated control. (f) Both cAMP and cGMP induction contribute to adenosine-mediated decreased PE-induced phosphorylation of myosin light chain (MLC). CCSM and CCS were isolated and cultured with the treatment of phenylephrine (PE-10 μM) in the presence or absence of adenosine (100 μM) or L-NAME (100 μM). 10 min after treatment, cellular extracts were isolated and western blot analysis were performed. The total MLC and phosphorylated MLC at S20 were detected by specific antibodies.
Isolation of primary corpus cavernosal smooth muscle cells (CCSM). Corpus cavernosum tissues were dissected as described above. Cavernosal tissue was washed in PBS and minced into […] pieces. Segments were incubated in 5-10 ml enzyme solutions containing 0.02% collagenase A (0.272 U/mg protein, Roche, Mannheim, Germany) and 0.5% elastase (3.73 U/mg protein, Cell system, St Katharinen, Germany) in a 75 mm flask at 37° C. for 6 hours. Enzymatic digestion was terminated by adding 10 ml DMEM supplemented with 10% fetal calf serum (FCS). […]
Tissue and corpus cavernosum smooth muscle cell (CCSM) cAMP and cGMP measurement. Quantitative assays for cAMP and cGMP were performed by using a commercial enzyme immunoassay kit (Amersham Pharmacia). […]

Each structure is given as a SMILES string.

For `Nc1ncnc2c1ncn2[C@@H]1O[C@H](CO)[C@@H](O)[C@H]1O` [adenosine], the cGMP levels result is listed as “lack of significant differences in cGMP production”. For the setting “listed as Adenosine”, the cGMP levels result is “had no effect”.
